Results taken from patent US11297838B2, “Pesticidal compositions and methods” (CORTEVA AGRISCIENCE LLC, priority 2018, dated 2022).

What was measured:
[1] = test system: Beet Armyworm (Spodoptera exigua, LAPHEG); assay: Insecticidal test for beet armyworm (BAW), 128-well diet tray assay; type: in vivo; conditions: 168 h, tested at 5 μg/cm^2, second instar larvae, five to seven days, read-out: BAW rating, % Control (or Mortality)
[2] = test system: Cabbage Looper (Trichloplusia ni, TRIPNI); assay: Insecticidal test for cabbage looper (CL), 128-well diet tray assay; type: in vivo; conditions: Trichoplusia ni, 168 h; tested at 5 μg/cm^2, second instar larvae, five to seven days; read-out: CL rating, % Control (or Mortality)

`Cc1ccc(C(C)C)c(N2C(=O)CS/C2=N\C(=O)OCC(F)c2ccc(-c3ncn(-c4ccc(OC(F)(F)C(F)(F)F)cc4)n3)cc2)c1` (centres unmarked) [A26, 2-Fluoro-2-(4-(1-(4-(perfluoroethoxy)phenyl)-1H-1,2,4-triazol-3-yl)phenyl)ethyl (Z)-(3-(2-isopropyl-5-methylphenyl)-4-oxothiazolidin-2-ylidene)carbamate] showed a mortality at 5 µg/cm2 [1] of 50 to 100% and a mortality at 5 µg/cm2 [2] of 0 to 50%.
